Target: recombinant human SAE enzyme (Homo sapiens (Human), UniProt Q9UBT2)
Assay: SAE HTRF enzyme assay
Type: biochemical
Conditions: for Percent Inhibition: Concentration 0.111 μM; for IC50: class symbols A/B/C
In short: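 Sumoylation of Ubc9-GST by SAE was followed at low ATP (0.5 μM), pH 7.5, 24° C. for 105 min. Product was detected by HTRF with antibody pairs against Flag and GST tags.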

Chain of recombinant human SAE enzyme (Q9UBT2 whole entry): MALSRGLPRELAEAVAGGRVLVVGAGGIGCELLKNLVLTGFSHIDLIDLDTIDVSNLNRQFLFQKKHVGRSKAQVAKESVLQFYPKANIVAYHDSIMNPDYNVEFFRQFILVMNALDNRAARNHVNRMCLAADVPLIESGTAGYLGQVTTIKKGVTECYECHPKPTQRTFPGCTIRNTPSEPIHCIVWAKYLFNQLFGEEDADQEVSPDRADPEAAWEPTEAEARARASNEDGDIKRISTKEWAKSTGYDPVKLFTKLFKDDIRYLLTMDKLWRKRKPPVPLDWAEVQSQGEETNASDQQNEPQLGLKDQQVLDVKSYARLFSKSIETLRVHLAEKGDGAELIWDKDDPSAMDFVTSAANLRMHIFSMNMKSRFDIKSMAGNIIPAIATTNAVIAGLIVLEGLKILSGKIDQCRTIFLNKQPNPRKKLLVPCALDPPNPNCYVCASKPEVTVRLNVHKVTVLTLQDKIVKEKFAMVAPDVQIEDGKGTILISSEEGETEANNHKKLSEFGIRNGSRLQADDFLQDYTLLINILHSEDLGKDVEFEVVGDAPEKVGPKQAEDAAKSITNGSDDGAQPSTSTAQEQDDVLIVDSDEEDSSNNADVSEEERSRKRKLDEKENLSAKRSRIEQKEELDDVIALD
Chain of recombinant human SAE enzyme (Q9UBE0 whole entry partner): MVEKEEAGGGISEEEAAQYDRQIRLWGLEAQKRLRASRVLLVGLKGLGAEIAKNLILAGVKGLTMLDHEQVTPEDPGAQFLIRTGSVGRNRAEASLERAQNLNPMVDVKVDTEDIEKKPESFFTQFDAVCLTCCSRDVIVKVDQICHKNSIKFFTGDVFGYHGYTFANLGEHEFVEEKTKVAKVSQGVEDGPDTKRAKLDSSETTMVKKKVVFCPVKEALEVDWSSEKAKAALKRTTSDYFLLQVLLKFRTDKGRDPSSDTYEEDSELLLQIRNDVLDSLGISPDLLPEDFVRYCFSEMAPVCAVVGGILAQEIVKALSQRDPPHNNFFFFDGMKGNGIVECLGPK

| Structure (SMILES) | Percent Inhibition | IC50 |
| --- | --- | --- |
| NS(=O)(=O)OC[C@H]1C[C@@H](Nc2ncncc2C(=O)c2cc([C@H](O)c3cc(Br)ccc3F)cs2)C[C@@H]1O (single isomer, unassigned) [I-19b, [(1R,2S,4R)-4-{[5-({4-[(R)-(5-bromo-2-fluorophenyl)(hydroxy)methyl]-2-thienyl}carbonyl)pyrimidin-4-yl]amino}-2-hydroxycyclopentyl]methyl sulfamate or [(1R,2S,4R)-4-{[5-({4-[(S)-(5-bromo-2-fluorophenyl)(hydroxy)methyl]-2-thienyl}carbonyl)pyrimidin-4-yl]amino}-2-hydroxycyclopentyl]methyl sulfamate] | 99 | < 10 nM |
| NS(=O)(=O)OC[C@H]1C[C@@H](Nc2ncncc2C(=O)c2cc(C3(c4cccc(Cl)c4)CCCO3)cs2)C[C@@H]1O (single isomer, unassigned) [I-20a, [(1R,2S,4R)-4-{[5-({4-[(2S)-2-(3-chlorophenyl)tetrahydrofuran-2-yl]-2-thienyl}carbonyl)pyrimidin-4-yl]amino}-2-hydroxycyclopentyl]methyl sulfamate or [(1R,2S,4R)-4-{[5-({4-[(2R)-2-(3-chlorophenyl)tetrahydrofuran-2-yl]-2-thienyl}carbonyl)pyrimidin-4-yl]amino}-2-hydroxycyclopentyl]methyl sulfamate] | 81 | 10 to 100 nM |
| NS(=O)(=O)OC[C@H]1C[C@@H](Nc2ncncc2C(=O)c2cc(C3(c4cccc(Cl)c4)CCCO3)cs2)C[C@@H]1O (single isomer, unassigned) [I-20b, [(1R,2S,4R)-4-{[5-({4-[(2S)-2-(3-chlorophenyl)tetrahydrofuran-2-yl]-2-thienyl}carbonyl)pyrimidin-4-yl]amino}-2-hydroxycyclopentyl]methyl sulfamate or [(1R,2S,4R)-4-{[5-({4-[(2R)-2-(3-chlorophenyl)tetrahydrofuran-2-yl]-2-thienyl}carbonyl)pyrimidin-4-yl]amino}-2-hydroxycyclopentyl]methyl sulfamate] | 99 | < 10 nM |
| N[C@H](c1cccc(Br)c1)c1cc(C(=O)c2cncnc2N[C@@H]2C[C@H](COS(N)(=O)=O)[C@@H](O)C2)sc1Cl (single isomer, unassigned) [I-22a, [(1R,2S,4R)-4-{[5-({4-[(R)-amino(3-bromophenyl)methyl]-5-chloro-2-thienyl}carbonyl)pyrimidin-4-yl]amino}-2-hydroxycyclopentyl]methyl sulfamate or [(1R,2S,4R)-4-{[5-({4-[(S)-amino(3-bromophenyl)methyl]-5-chloro-2-thienyl}carbonyl)pyrimidin-4-yl]amino}-2-hydroxycyclopentyl]methyl sulfamate] | 83 | 10 to 100 nM |
| N[C@H](c1cccc(Br)c1)c1cc(C(=O)c2cncnc2N[C@@H]2C[C@H](COS(N)(=O)=O)[C@@H](O)C2)sc1Cl (single isomer, unassigned) [I-22b, [(1R,2S,4R)-4-{[5-({4-[(R)-amino(3-bromophenyl)methyl]-5-chloro-2-thienyl}carbonyl)pyrimidin-4-yl]amino}-2-hydroxycyclopentyl]methyl sulfamate or [(1R,2S,4R)-4-{[5-({4-[(S)-amino(3-bromophenyl)methyl]-5-chloro-2-thienyl}carbonyl)pyrimidin-4-yl]amino}-2-hydroxycyclopentyl]methyl sulfamate] | 99 | < 10 nM |
| N[C@H](c1cccc(Br)c1)c1cc(C(=O)c2cncnc2N[C@@H]2C[C@H](COS(N)(=O)=O)[C@@H](O)[C@H]2O)sc1Cl (single isomer, unassigned) [I-24a, [(1R,2R,3S,4R)-4-{[5-({4-[(R)-amino(3-bromophenyl)methyl]-5-chloro-2-thienyl}carbonyl)pyrimidin-4-yl]amino}-2,3-dihydroxycyclopentyl]methyl sulfamate or [(1R,2R,3S,4R)-4-{[5-({4-[(S)-amino(3-bromophenyl)methyl]-5-chloro-2-thienyl}carbonyl)pyrimidin-4-yl]amino}-2,3-dihydroxycyclopentyl]methyl sulfamate] | 101 | < 10 nM |
| N[C@H](c1cccc(Br)c1)c1cc(C(=O)c2cncnc2N[C@@H]2C[C@H](COS(N)(=O)=O)[C@@H](O)[C@H]2O)sc1Cl (single isomer, unassigned) [I-24b, [(1R,2R,3S,4R)-4-{[5-({4-[(R)-amino(3-bromophenyl)methyl]-5-chloro-2-thienyl}carbonyl)pyrimidin-4-yl]amino}-2,3-dihydroxycyclopentyl]methyl sulfamate or [(1R,2R,3S,4R)-4-{[5-({4-[(S)-amino(3-bromophenyl)methyl]-5-chloro-2-thienyl}carbonyl)pyrimidin-4-yl]amino}-2,3-dihydroxycyclopentyl]methyl sulfamate] | 101 | – |
| N[C@H](c1cccc(Cl)n1)c1cc(C(=O)c2cncnc2N[C@@H]2C[C@H](COS(N)(=O)=O)[C@@H](O)C2)sc1Cl (single isomer, unassigned) [I-25a, [(1R,2S,4R)-4-{[5-({4-[(S)-amino(6-chloropyridin-2-yl)methyl]-5-chloro-2-thienyl}carbonyl)pyrimidin-4-yl]amino}-2-hydroxycyclopentyl]methyl sulfamate or [(1R,2S,4R)-4-{[5-({4-[(R)-amino(6-chloropyridin-2-yl)methyl]-5-chloro-2-thienyl}carbonyl)pyrimidin-4-yl]amino}-2-hydroxycyclopentyl]methyl sulfamate] | 97 | < 10 nM |
| N[C@H](c1cccc(Cl)n1)c1cc(C(=O)c2cncnc2N[C@@H]2C[C@H](COS(N)(=O)=O)[C@@H](O)C2)sc1Cl (single isomer, unassigned) [I-25b, [(1R,2S,4R)-4-{[5-({4-[(S)-amino(6-chloropyridin-2-yl)methyl]-5-chloro-2-thienyl}carbonyl)pyrimidin-4-yl]amino}-2-hydroxycyclopentyl]methyl sulfamate or [(1R,2S,4R)-4-{[5-({4-[(R)-amino(6-chloropyridin-2-yl)methyl]-5-chloro-2-thienyl}carbonyl)pyrimidin-4-yl]amino}-2-hydroxycyclopentyl]methyl sulfamate] | 99 | < 10 nM |
| C[C@](N)(c1cccc(Br)c1)c1csc(C(=O)c2cncnc2N[C@@H]2C[C@H](COS(N)(=O)=O)[C@@H](O)[C@H]2O)c1 (single isomer, unassigned) [I-27a, [(1R,2R,3S,4R)-4-{[5-({4-[(1S)-1-amino-1-(3-bromophenyl)ethyl]-2-thienyl}carbonyl)pyrimidin-4-yl]amino}-2,3-dihydroxycyclopentyl]methyl sulfamate or [(1R,2R,3S,4R)-4-{[5-({4-[(1R)-1-amino-1-(3-bromophenyl)ethyl]-2-thienyl}carbonyl)pyrimidin-4-yl]amino}-2,3-dihydroxycyclopentyl]methyl sulfamate] | 96 | < 10 nM |
| C[C@](N)(c1cccc(Br)c1)c1csc(C(=O)c2cncnc2N[C@@H]2C[C@H](COS(N)(=O)=O)[C@@H](O)[C@H]2O)c1 (single isomer, unassigned) [I-27b, [(1R,2R,3S,4R)-4-{[5-({4-[(1S)-1-amino-1-(3-bromophenyl)ethyl]-2-thienyl}carbonyl)pyrimidin-4-yl]amino}-2,3-dihydroxycyclopentyl]methyl sulfamate or [(1R,2R,3S,4R)-4-{[5-({4-[(1R)-1-amino-1-(3-bromophenyl)ethyl]-2-thienyl}carbonyl)pyrimidin-4-yl]amino}-2,3-dihydroxycyclopentyl]methyl sulfamate] | 101 | < 10 nM |
| Cc1sc(C(=O)c2cncnc2N[C@@H]2C[C@H](COS(N)(=O)=O)[C@@H](O)C2)cc1[S@+]([O-])c1cccc(Cl)c1 (single isomer, unassigned) [I-28a, [(1R,2S,4R)-4-{[5-({4-[(R)-(3-chlorophenyl)sulfinyl]-5-methyl-2-thienyl}carbonyl)pyrimidin-4-yl]amino}-2-hydroxycyclopentyl]methyl sulfamate or [(1R,2S,4R)-4-{[5-({4-[(S)-(3-chlorophenyl)sulfinyl]-5-methyl-2-thienyl}carbonyl)pyrimidin-4-yl]amino}-2-hydroxycyclopentyl]methyl sulfamate] | 66 | 10 to 100 nM |
| Cc1sc(C(=O)c2cncnc2N[C@@H]2C[C@H](COS(N)(=O)=O)[C@@H](O)C2)cc1[S@+]([O-])c1cccc(Cl)c1 (single isomer, unassigned) [I-28b, [(1R,2S,4R)-4-{[5-({4-[(R)-(3-chlorophenyl)sulfinyl]-5-methyl-2-thienyl}carbonyl)pyrimidin-4-yl]amino}-2-hydroxycyclopentyl]methyl sulfamate or [(1R,2S,4R)-4-{[5-({4-[(S)-(3-chlorophenyl)sulfinyl]-5-methyl-2-thienyl}carbonyl)pyrimidin-4-yl]amino}-2-hydroxycyclopentyl]methyl sulfamate] | 100 | < 10 nM |
| NS(=O)(=O)OC[C@H]1C[C@@H](Nc2ncncc2C(=O)c2cc(C(O)c3cccc(Cl)n3)cs2)C[C@@H]1O (single isomer, unassigned) [I-29a, [(1R,2S,4R)-4-{[5-({4-[(S)-(6-chloropyridin-2-yl)(hydroxy)methyl]-2-thienyl}carbonyl)pyrimidin-4-yl]amino}-2-hydroxycyclopentyl]methyl sulfamate or [(1R,2S,4R)-4-{[5-({4-[(R)-(6-chloropyridin-2-yl)(hydroxy)methyl]-2-thienyl}carbonyl)pyrimidin-4-yl]amino}-2-hydroxycyclopentyl]methyl sulfamate] | 97 | < 10 nM |
